# Laboratory results from paper PMC7187627 (Antimicrobial Agents and Chemotherapy, 2019).
# “And” between values parts separate entries of the source, which are not always exact repeats. Equal entries are not always repeated.
# What was measured:
# [1] = Fecal (stool) pharmacokinetics, multiple-ascending-dose phase 1 study; format: in vivo, human; conditions: for Cstool,ss (concentration in stool) / fe,stool (fe,feces,ss, fraction of dose excreted unchanged in feces over 24 h): day 10, median (minimum, maximum); for fe,stool (fe,feces,ss, fraction of dose excreted unchanged in feces over 24 h): % in Table S4
# Method: PK method development, validation, and sample testing for plasma, feces, and urine were performed at KCAS, LLC (Shawnee, KS). Plasma, urine, and fecal concentrations of CRS3123 were determined by means of validated, sensitive, and specific high-performance liquid chromatography/tandem mass spectrometric (HPLC-MS/MS) assays. The lower limits of quantification of CRS3123 in plasma, feces, and urine were 10.0 ng/ml, 60.0 ng/g, and 100.0 ng/ml, respectively. The validated urine PK assay measured total free CSR3123. Since the majority of urinary CRS3123 was excreted as glucuronide conjugates ([32]), an enzymatic cleavage step using glucuronidase was added to the process to convert the glucuronide conjugates to free CRS3123 for the urine analysis.
# A selective, accurate, and reproducible analytical method using LC-MS/MS for the quantitation of CRS3123 in human fecal homogenate was linear over a range of 10.0 to 2000 ng/ml (fecal homogenate) or 60.0 to 12,000 ng/g (fecal material). Since 11 fecal samples collected on day 10 exceeded the upper limit, this method was amended by validating it for an extended range of 50.0 to 3,000 μg/ml (fecal homogenate) or […] (fecal material).
# (iii) Fecal PK. Twenty-four-hour fecal collection was initiated for all subjects following dose 1 and dose 19 of study drug for measurement of CRS3123 concentrations in feces. A listing of individual PK fecal sample collection start and stop dates/times, fecal weight excreted for each planned collection, CRS3123 concentration in each fecal collection, and amount of CRS3123 excreted in each fecal collection was provided for each fecal collection for each treatment. The bioanalytical method was amended to allow for reanalysis of samples originally outside the linear range.
# The following parameters were calculated from the fecal data: amount of unchanged drug excreted in feces (in nanograms) following doses 1 and 2 (Ae,feces) or doses 19 and 20 (Ae,feces,ss) calculated as fecal concentration × fecal weight (in the case of multiple fecal samples, Ae,feces and Ae,feces,ss were determined as the sum of the amount calculated in each fecal sample collected during the 24-h collection period), and fraction of dose excreted unchanged in feces (fe,feces,ss) over a 24-h interval after multiple dosing (expressed as a percentage), calculated as Ae,feces,ss divided by dose 19 plus dose 20.
# Due to the 12-h dosing interval utilized in this study, fe,feces,ss was calculated only after multiple dosing on day 10, when CRS3123 would be expected to be at or near steady state. […] A subject listing of individual fecal PK parameters for each treatment was provided for day 1 and for day 10.
# [2] = Drug product stability (ICH Q1A(R2)); format: physicochemical; conditions: 200-mg gelatin capsules, room temperature
# From the text: CRS3123 was provided by Crestone, Inc., in the form of dihydrochloride salt (CRS3123.2HCl) and formulated into 200-mg gelatin capsules by SRI International (Palo Alto, CA). Drug product stability specifications were met beyond the study period [stable for at least 60 months storage at room temperature monitored according to ICH Guidance for Industry Q1A(R2) Stability Testing of New Substances and Products].
# C. difficile [3] = test system: C. difficile; parameters: method as in PMID 19258353; conditions: cited from earlier work
# C. difficile [4] = test system: C. difficile; parameters: method as in PMID 19258353, PMID 19251726; conditions: in vivo model of CDI, compared with vancomycin; cited from earlier work
# [5] = test system: type 1 methionyl-tRNA synthetase (MetRS); parameters: method as in PMID 19258353, PMID 19251726; conditions: cited from earlier work
# C. difficile [6] = test system: C. difficile; parameters: method as in PMID 19258353, PMID 19251726; conditions: cited from earlier work
# [7] = test system: Bacterial strains that express type 2 MetRS; parameters: method as in PMID 19240076; conditions: most Gram-negative bacteria, Bacteroides, bifidobacteria, actinobacteria, lactobacilli; cited from earlier work
smiles,measurement,setting,value
O=c1cc(NCCCN[C@@H]2CCOc3c(Br)cc(Br)cc32)[nH]c2ccsc12 [CRS3123],"Cstool,ss (concentration in stool)",[1]; 200 mg Q12h oral,"2,115 μg/g and 2,115 (966, 4,430) μg/g"
same,"fe,stool (fe,feces,ss, fraction of dose excreted unchanged in feces over 24 h)",[1]; 200 mg Q12h oral,"24.9% and 24.9 (1.9, 68.8) %"
same,"Cstool,ss (concentration in stool)",[1]; 400 mg Q12h oral,"5,390 μg/g and 5,390 (2,920, 8,700) μg/g"
same,"fe,stool (fe,feces,ss, fraction of dose excreted unchanged in feces over 24 h)",[1]; 400 mg Q12h oral,52.0%
same,"Cstool,ss (concentration in stool)",[1]; 600 mg Q12h oral,"8,280 μg/g and 8,280 (2,200, 14,000) μg/g"
same,"fe,stool (fe,feces,ss, fraction of dose excreted unchanged in feces over 24 h)",[1]; 600 mg Q12h oral,"43.1% and 43.1 (11.0, 125.8) %"
same,concentrations in feces,[1]; all three doses tested,"above 1,000 μg/g"
same,fecal concentrations relative to MIC90,"[1]; human, in vivo",substantially above the MIC90 value
same,"drug product stability, storage time",[2],at least 60 months
same,MIC90,C. difficile [3],1 µg/mL
same,protection of hamsters against recurrence,C. difficile [4],superior to vancomycin
same,inhibition of type 1 MetRS,[5],potently inhibits
same,C. difficile toxin production and sporulation,C. difficile [6],inhibits
same,susceptibility of strains expressing type 2 MetRS,[7],virtually no susceptibility
